These results are taken from US6777440B2, “HIV integrase inhibitors” (Bristol-Myers Squibb Company, priority 2001, dated 2004).

Each structure is given as a SMILES string. Some results are limits rather than exact numbers.

One data set addresses T1, HIV-integrase (Human immunodeficiency virus type 1 group M subtype B, UniProt P04585).
T1 construct: 0.26 ng of recombinant integrase was incubated with the beads
Description: HIV-integrase inhibition activity (SPA bead strand-transfer assay). Particulars: 50 μM compound; recombinant integrase. It counts as biochemical. The protocol: For each reaction, 5 pmole of biotin labled substrate DNA was bound to 100 ug of Streptavidin coated PVT SPA beads (Amersham Pharmacia Biotech). 0.26 ng of recombinant integrase was incubated with the beads for 90 min at 37° C. Unbound enzyme was removed by washing the complex followed by addition of inhibitors and 0.1 fmol of P33 labeled target DNA. Reaction was stopped by adding EDTA to a final concentration of 10 mM. Samples were counted in TopCountNXT (Packard) and the CPM was used as a measure of integration. Reaction condition was as described in A. Engelman and R. Craigie, J. Virol. 69, 5908-5911 (1995). The sequences of substrate and target DNA were described in Nucleic Acid Research 22, 1121-1122 (1994). Compounds of this invention tested in this assay have IC50's of approximately 0.01 to 50 μM
`O=C(CON(Cc1ccc(F)cc1)C(=O)/C=C(\O)C(=O)O)NCc1ccc(F)cc1` [Compound 65]: the inhibition at 50 µM was above 99%.

`CON(Cc1ccccc1)C(=O)/C=C(\O)C(=O)O` [Compound 1, 3-(Benzyl-methoxy-carbamoyl)-2-hydroxy-acrylic acid]: the inhibition at 50 µM was 99%. On the same count and under the same terms, the value for `CON(Cc1ccc(F)cc1F)C(=O)/C=C(\O)C(=O)O` [Compound 17, 3-[(2,4-Difluoro-benzyl)-methoxy-carbamoyl]-2-hydroxy-acrylic acid] was 99.9%; that for `COc1ccc(CN(OC)C(=O)/C=C(\O)C(=O)O)cc1` [Compound 16, 2-Hydroxy-3-[methoxy-(4-methoxy-benzyl)-carbamoyl]-acrylic acid] was 99%. As for `O=C(CON(Cc1ccc(F)cc1)C(=O)/C=C(\O)C(=O)O)NCc1ccc(C(F)(F)F)cc1` [Compound 69], the inhibition at 50 µM is above 99%. On the same count and under the same terms, the value for `CN(CCCC(c1ccc(Cl)cc1)c1ccc(Cl)cc1)C(=O)CON(Cc1ccc(F)cc1)C(=O)/C=C(\O)C(=O)O` [Compound 71] was above 99%; that for `O=C(O)/C(O)=C/C(=O)N(Cc1ccc(F)cc1)OCC(=O)N1CCOCC1` [Compound 62] was above 99%; that for `CCCN(CC1CC1)C(=O)CON(Cc1ccc(F)cc1)C(=O)/C=C(\O)C(=O)O` [Compound 73] was above 99%. As to `CC(C)CON(Cc1ccc(F)cc1)C(=O)/C=C(\O)C(=O)O` [Compound 13, 3-[(4-Fluoro-benzyl)-isobutoxy-carbamoyl]-2-hydroxy-acrylic acid], the inhibition at 50 µM amounted to 99.9%. `CON(Cc1ccc(C#N)cc1)C(=O)/C=C(\O)C(=O)O` [Compound 21, 3-[(4-Cyano-benzyl)-methoxy-carbamoyl]-2-hydroxy-acrylic acid]: the inhibition at 50 µM was found to be 99.9%. The same measure, in the same setting: the value for `COc1ccc(CNC(=O)CON(Cc2ccc(F)cc2)C(=O)/C=C(\O)C(=O)O)cc1` [Compound 67] was above 99%; that for `CC(C)CN(CC(C)C)C(=O)CON(Cc1ccc(F)cc1)C(=O)/C=C(\O)C(=O)O` [Compound 74] was above 99%; that for `O=C(O)/C(O)=C/C(=O)N(Cc1ccc(F)cc1)OCC(=O)N(C1CCCCC1)C1CCCCC1` [Compound 76] was above 99%. Turning to `CON(Cc1cccc(F)c1)C(=O)/C=C(\O)C(=O)O` [Compound 7, 3[(3-Fluoro-benzyl)-methoxy-carbamoyl]-2-hydroxy-acrylic acid], the inhibition at 50 µM was 99.9%.

As for `O=C(O)/C(O)=C/C(=O)N(Cc1ccc(Cl)c(Cl)c1)OCc1ccccc1` [Compound 6, 3-[Benzyloxy-(3,4-dichloro-benzyl)-carbamoyl]-2-hydroxy-acrylic acid], the inhibition at 50 µM was 99.9%.

Regarding `CCNC(=O)CON(Cc1ccc(F)cc1)C(=O)/C=C(\O)C(=O)O` [Compound 78], the inhibition at 50 µM is above 99%. Regarding `CCCCN(Cc1ccccc1)C(=O)CON(Cc1ccc(F)cc1)C(=O)/C=C(\O)C(=O)O` [Compound 72], the inhibition at 50 µM is above 99%.

In the case of `CC(NC(=O)CON(Cc1ccc(F)cc1)C(=O)/C=C(\O)C(=O)O)c1ccc(F)cc1` (stereo not shown) [Compound 70], the inhibition at 50 µM was above 99%. As for `Cc1ccc(CNC(=O)CON(Cc2ccc(F)cc2)C(=O)/C=C(\O)C(=O)O)cc1` [Compound 68], the inhibition at 50 µM is above 99%. For the molecule `CON(Cc1ccc(Cl)cc1)C(=O)/C=C(\O)C(=O)O` [Compound 10, 3-[(4-Chloro-benzyl)-methoxy-carbamoyl]-2-hydroxy-acrylic acid], the inhibition at 50 µM worked out at 99.9%. For `CON(Cc1ccccc1F)C(=O)/C=C(\O)C(=O)O` [Compound 8, 3-[(2-Fluoro-benzyl)-methoxy-carbamoyl]-2-hydroxy-acrylic acid], the inhibition at 50 µM worked out at 99.9%. Same read-out and setting: with `CCCCCCN(CCCCCC)C(=O)CON(Cc1ccc(F)cc1)C(=O)/C=C(\O)C(=O)O` [Compound 75] the figure was above 99%; with `O=C(O)/C(O)=C/C(=O)N(Cc1ccccc1)OCc1ccccc1` [Compound 2, 3-(Benzyl-benzyloxy-carbamoyl)-2-hydroxy-acrylic acid], 99.9%; with `O=C(CON(Cc1ccc(F)cc1)C(=O)/C=C(\O)C(=O)O)NCc1ccc(Cl)cc1` [Compound 66], above 99%. `CC(=O)N1CCCN(C(=O)CON(Cc2ccc(F)cc2)C(=O)/C=C(\O)C(=O)O)CC1` [Compound 77]: the inhibition at 50 µM is above 99%. Same read-out and setting: the value for `CC(C)CNC(=O)CON(Cc1ccc(F)cc1)C(=O)/C=C(\O)C(=O)O` [Compound 79] was above 99%; that for `CN(CCCN1c2ccccc2CCc2ccccc21)C(=O)CON(Cc1ccc(F)cc1)C(=O)/C=C(\O)C(=O)O` [Compound 63] was above 99%; that for `CC(NC(=O)CON(Cc1ccc(F)cc1)C(=O)/C=C(\O)C(=O)O)c1ccccc1` (stereo not shown) [Compound 64] was above 99%.

Tested on in the next data set: not given
Experiment: not given
Conditions: not given
For the molecule `CON(Cc1ccc(C(=O)O)cc1)C(=O)/C=C1\OC(C)(C)OC1=O`, the melting point fell in the range of 217 to 219 °C.

In turn, `CON(Cc1ccc(F)cc1F)C(=O)/C=C(\O)C(=O)O` [Compound 17, 3-[(2,4-Difluoro-benzyl)-methoxy-carbamoyl]-2-hydroxy-acrylic acid] displayed a melting point of 131 to 132 °C.

In turn, `CC(C)(C)OC(=O)CON(Cc1ccc(F)cc1)C(=O)/C=C1\OC(C)(C)OC1=O` had a melting point of 119 to 120 °C. Molecule `COc1ccc(CN(OC)C(=O)/C=C(\O)C(=O)O)cc1` [Compound 16, 2-Hydroxy-3-[methoxy-(4-methoxy-benzyl)-carbamoyl]-acrylic acid] had a melting point of 83 to 86 °C. Still for that read-out and setting: the value for `CON(Cc1ccc(C(=O)O)cc1)C(=O)/C=C(\O)C(=O)O` was 123 to 125 °C. Take `CON(Cc1ccc(C)cc1)C(=O)/C=C(\O)C(=O)O`: the melting point is 108 to 111 °C (dec.). In the case of `CN(C)CCON(Cc1ccc(F)cc1)C(=O)/C=C1\OC(C)(C)OC1=O`, the melting point is 95 to 96 °C. On the same count and under the same terms, the value for `CON(CCCc1ccc(Cl)c(Cl)c1)C(=O)/C=C1\OC(C)(C)OC1=O` was 105 to 106 °C. On the same count and under the same terms, with `COC(=O)c1ccc(CN(OC)C(=O)/C=C2\OC(C)(C)OC2=O)cc1` the figure was 120 °C. The same measure, in the same setting: the value for `COc1ccc(CN(OC)C(=O)/C=C2\OC(C)(C)OC2=O)cc1` was 113 to 114 °C. In the case of `CC1(C)OC(=O)/C(=C/C(=O)N(Cc2ccccc2)OCc2ccccc2)O1`, the melting point lay in the range of 107 to 108 °C. Same read-out and setting: with `CC(C)CON(Cc1ccc(F)cc1)C(=O)/C=C(\O)C(=O)O` [Compound 13, 3-[(4-Fluoro-benzyl)-isobutoxy-carbamoyl]-2-hydroxy-acrylic acid] the figure was 100 to 101 °C; with `CON(Cc1ccc(C#N)cc1)C(=O)/C=C(\O)C(=O)O` [Compound 21, 3-[(4-Cyano-benzyl)-methoxy-carbamoyl]-2-hydroxy-acrylic acid], 135 to 137 °C (dec.); with `CON(Cc1ccc(F)c(C)c1)C(=O)/C=C(\O)C(=O)O`, 120 to 122 °C.

Molecule `CON(Cc1ccccc1)C(=O)/C=C1\OC(C)(C)OC1=O` displayed a melting point of 109 to 110 °C. Same read-out and setting: with `CON(Cc1ccc(F)cc1C(F)(F)F)C(=O)/C=C1\OC(C)(C)OC1=O` the figure was 129 to 130 °C; with `CON(Cc1ccc(F)c(C)c1)C(=O)/C=C1\OC(C)(C)OC1=O`, 107 to 108 °C; with `CON(CCCc1ccc(F)cc1)C(=O)/C=C1\OC(C)(C)OC1=O`, 90 to 91 °C. On to `CON(Cc1ccccc1OC(C)C)C(=O)/C=C1\OC(C)(C)OC1=O`, for which the melting point came out at 103 °C. Still for that read-out and setting: with `CON(Cc1ccccc1F)C(=O)/C=C1\OC(C)(C)OC1=O` the figure was 109 to 111 °C; with `CON(Cc1ccc(C(F)(F)F)cc1)C(=O)/C=C(\O)C(=O)O`, 108 to 110 °C; with `CON(Cc1ccc(C)cc1)C(=O)/C=C1\OC(C)(C)OC1=O`, 108 to 110 °C. On the same count and under the same terms, with `CC1(C)OC(=O)/C(=C/C(=O)N(Cc2ccc(Cl)c(Cl)c2)OCc2ccccc2)O1` the figure was 113 to 116 °C. Same read-out and setting: with `CC(C)(C)OC(=O)CON(Cc1ccc(Cl)c(Cl)c1)C(=O)/C=C1\OC(C)(C)OC1=O` the figure was 127 to 129 °C; with `CON(CCCc1ccc(F)cc1)C(=O)/C=C(\O)C(=O)O`, 86 °C (dec.); with `CCON(Cc1ccc(F)cc1)C(=O)/C=C1\OC(C)(C)OC1=O`, 95 to 96 °C.

Take `CON(Cc1ccc(F)c(Br)c1)C(=O)/C=C1\OC(C)(C)OC1=O`: the melting point lay in the range of 117 to 119 °C. Still for that read-out and setting: with `CON(Cc1ccc(F)cc1Cl)C(=O)/C=C(\O)C(=O)O` the figure was 140 to 143 °C; with `CON(Cc1ccc(C#N)cc1)C(=O)/C=C1\OC(C)(C)OC1=O`, 148 to 149 °C; with `CON(Cc1ccccc1C)C(=O)/C=C1\OC(C)(C)OC1=O`, 96 to 97 °C. Still for that read-out and setting: with `CON(Cc1ccc(C)c(F)c1)C(=O)/C=C1\OC(C)(C)OC1=O` the figure was 131 °C; with `CON(Cc1ccc(F)cc1F)C(=O)/C=C1\OC(C)(C)OC1=O`, 120 to 125 °C.

Molecule `CON(Cc1ccc(C)c(F)c1)C(=O)/C=C(\O)C(=O)O` came in with a melting point of 99 °C. The same measure, in the same setting: the value for `CON(Cc1ccc(C(=O)OC(C)(C)C)cc1)C(=O)/C=C1\OC(C)(C)OC1=O` was 137 to 138 °C. For the molecule `CON(CCCc1ccc(Cl)c(Cl)c1)C(=O)/C=C(\O)C(=O)O`, the melting point was 106 °C (dec.). The same measure, in the same setting: the value for `CON(Cc1ccc(C(F)(F)F)cc1)C(=O)/C=C1\OC(C)(C)OC1=O` was 110 °C. On the same count and under the same terms, the value for `CON(Cc1ccc(F)cc1Cl)C(=O)/C=C1\OC(C)(C)OC1=O` was 127 to 128 °C.

Molecule `CON(Cc1ccc(Cl)cc1)C(=O)/C=C1\OC(C)(C)OC1=O` gave a melting point of 129 to 130 °C. Same read-out and setting: with `CON(CCc1ccc(F)cc1)C(=O)/C=C1\OC(C)(C)OC1=O` the figure was 106 to 107 °C; with `CON(Cc1cccc(F)c1)C(=O)/C=C1\OC(C)(C)OC1=O`, 110 to 111 °C; with `CC(C)CON(Cc1ccc(F)cc1)C(=O)/C=C1\OC(C)(C)OC1=O`, 105 to 106 °C. On to `CON(Cc1ccc(NC(C)=O)cc1)C(=O)/C=C1\OC(C)(C)OC1=O`, for which the melting point is 212 to 215 °C (dec.).

The inhibition is the share of the control response that was lost under treatment. What is called melting point is the temperature, or range, at which the solid turns liquid.
